Target: T1, LATS2 (Homo sapiens, UniProt Q9NRM7)
T1 sequence (Q9NRM7 1-1088): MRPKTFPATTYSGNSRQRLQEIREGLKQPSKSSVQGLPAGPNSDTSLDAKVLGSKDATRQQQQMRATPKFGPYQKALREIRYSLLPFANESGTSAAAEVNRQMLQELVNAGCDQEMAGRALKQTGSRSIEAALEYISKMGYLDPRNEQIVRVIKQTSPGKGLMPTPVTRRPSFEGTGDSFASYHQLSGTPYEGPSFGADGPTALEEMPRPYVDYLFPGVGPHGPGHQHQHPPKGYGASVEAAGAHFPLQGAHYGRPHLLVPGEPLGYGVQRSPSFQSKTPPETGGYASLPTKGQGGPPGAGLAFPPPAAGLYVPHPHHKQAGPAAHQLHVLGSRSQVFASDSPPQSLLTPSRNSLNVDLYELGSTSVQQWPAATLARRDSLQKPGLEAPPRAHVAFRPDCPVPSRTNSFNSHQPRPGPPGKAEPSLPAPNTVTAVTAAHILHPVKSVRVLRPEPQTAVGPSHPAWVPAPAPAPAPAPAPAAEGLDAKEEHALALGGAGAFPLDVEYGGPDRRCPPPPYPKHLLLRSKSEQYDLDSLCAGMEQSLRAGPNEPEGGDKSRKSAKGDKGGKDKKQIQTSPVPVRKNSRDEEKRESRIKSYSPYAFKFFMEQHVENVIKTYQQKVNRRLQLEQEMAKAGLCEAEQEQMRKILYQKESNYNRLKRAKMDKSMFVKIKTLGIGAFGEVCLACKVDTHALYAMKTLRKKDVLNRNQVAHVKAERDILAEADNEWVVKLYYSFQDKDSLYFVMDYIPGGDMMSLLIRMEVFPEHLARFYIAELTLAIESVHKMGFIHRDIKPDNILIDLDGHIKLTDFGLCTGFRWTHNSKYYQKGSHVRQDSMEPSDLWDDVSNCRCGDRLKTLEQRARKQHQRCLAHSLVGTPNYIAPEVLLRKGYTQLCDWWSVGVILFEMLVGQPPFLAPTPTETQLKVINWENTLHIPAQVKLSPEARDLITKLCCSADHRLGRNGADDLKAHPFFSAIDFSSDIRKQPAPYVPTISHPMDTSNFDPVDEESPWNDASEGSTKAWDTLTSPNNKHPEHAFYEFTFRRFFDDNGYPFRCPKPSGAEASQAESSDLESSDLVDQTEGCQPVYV
Experiment: RBC HotSpot kinase assay (33P-ATP, P81 filter-binding), LATS2
Format: biochemical
Details: biochemical kinase inhibition; read-out: LATS2 IC50
Summary of the method: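 Kinase in Hepes pH 7.5 buffer with Mg2+, EGTA, Brij35, BSA, vanadate, DTT and 1% DMSO, plus required cofactors and substrate, was preincubated 20 min at room temperature with compound. Reaction was started with 33P-ATP and run 2 h, then detected by P81 filter binding. IC50 (nM) came from 10-point singlet curves.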

IC50: 2.6 nM
SMILES: Cc1cc(-c2ccnc3[nH]cc(C#N)c23)ccc1[C@@]1(O)[C@H](C)CN(C2CCS(=O)(=O)CC2)C[C@@H]1C [Compound 2003, 4-(4-((3S,4s,5R)-1-(1,1-dioxidotetrahydro-2H-thiopyran-4-yl)-4-hydroxy-3,5-dimethylpiperidin-4-yl)-3-methylphenyl)-1H-pyrrolo[2,3-b]pyridine-3-carbonitrile]
